One series has as its system db/db mice. The conditions noted are these: db/db.
The target of series [1] is T1, PPARγ2 (Homo sapiens, UniProt P37231).
T1 sequence (P37231 1-505): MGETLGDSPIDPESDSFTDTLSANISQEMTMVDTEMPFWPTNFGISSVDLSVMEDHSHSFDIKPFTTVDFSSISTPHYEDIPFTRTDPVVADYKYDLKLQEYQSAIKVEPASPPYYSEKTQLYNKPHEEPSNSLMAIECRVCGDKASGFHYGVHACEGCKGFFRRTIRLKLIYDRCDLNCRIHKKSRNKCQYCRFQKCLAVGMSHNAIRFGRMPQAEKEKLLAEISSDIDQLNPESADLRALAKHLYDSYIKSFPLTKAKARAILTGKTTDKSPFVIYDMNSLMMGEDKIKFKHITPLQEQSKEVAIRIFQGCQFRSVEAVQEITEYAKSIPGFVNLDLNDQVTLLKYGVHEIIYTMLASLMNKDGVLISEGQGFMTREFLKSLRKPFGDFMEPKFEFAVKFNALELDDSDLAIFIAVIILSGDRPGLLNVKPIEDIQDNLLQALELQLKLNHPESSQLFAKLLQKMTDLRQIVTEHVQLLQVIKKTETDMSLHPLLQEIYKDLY
As to the kind of experiment: Transient transfection, PPARγ2 reporter (luciferase/β-galactosidase) in Hep G2 cells. The series is classed as cell-based. Set-up: a construct containing the entire cDNA of the human PPARγ2 (hPPARγ2); expressed in transfected cells; host or cells: Hep G2. Particulars: HepG2 cells, pSG5-hPPARγ2, 24 h, F-L-leu at 10^−5 M. As to the method: Hep G2 cells were co-transfected with an expression vector for PPARγ2 (0.1 μg/well), pGL3-(Jwt)3TKLuc reporter construct (0.5 μg/well), and pCMV-βGal (0.5 μg/well), as a control of transfection efficiency (0.5 μg/well). The were then grown during 24 h in the presence or absence of indicated compound Activation is expressed as relative luciferase activity/β-galactosidase activity. Each point was performed in triplicate. This figure is representative of three independent experiments.
(§1) RK13 cells (A and D), CV1 cells (B) or Hep G2 cells (C) were co-transfected with an expression vector for PPARγ2 (0.1 μg/well), pGL3-(Jwt)3TKLuc reported construct (0.5 μg/well), and pCMV-βGal (0.5 μg/well), as a control of transfection efficiency (0.5 μg/well). They were then grown during 24 h in the presence or absence of indicated compound. Activation is expressed as relative luciferase activity/β ? galactosidase activity. Each point was performed in triplicate, and each figure i ? representative of four independent experiments.
(§2) The CV1, RK-13, and Hep G2 cell lines were obtained from ATCC (Rockville, Md.). Cells were maintained in Dulbecco's modified Eagle's minimal essential medium (DMEM) supplemented with 10% fetal calf serum (FCS), L-glutamine, and antibiotics. Transfections with chloramphenicol acetyltransferase (CAT) or luciferase (luc.) reporter constructs were carried out exactly as described previously (Schoonjans et al., 1996). The pGL3-(Jwt)3TKLuc and the pGL3-(Jwt)3TKCAT reporter constructs contain both three tandem repeats of the J site of the apolipoprotein A-II promoter cloned upstream of the herpes simplex virus thymidine kinase (TK) promoter and the luciferase or the CAT reporter genes respectively (Vu-Dac et al., 1995). The following expression vectors were used; pSG5-hPPARγ2, a construct containing the entire cDNA of the human PPARγ2 (hPPARγ2) (Fajas et al., 1997); pSG5-mPPARα (Isseman et al., 1993); and pCMV-βGal, as a control of transfection efficiency.

In series [2] the target is T1, PPARγ2. Description: Transient transfection, PPARγ2 reporter in RK13 cells. It is filed as cell-based. The arrangement: a construct containing the entire cDNA of the human PPARγ2 (hPPARγ2); expressed in transfected cells; host or cells: Hep G2, RK13 or CV1 cells. Particulars: RK13 cells, 10^−5 M added. As to the method: as §1, §2

Method for db/db mice: Intraperitoneal glucose tolerance test (IPGTT) in C57BL/6j (A) or db/db (B) mice 10 to 12 weeks old (n=8).
All mice were maintained in a temperature-controlled (25° C.) facility with a strict 12 h ? light/dark cycle and were given free access to food (standard mice chow; DO4, UAR ? France) and water.
C57B1/6J and db/db mice (8 per group) were obtained through the Janvier laboratorie ? (Laval-Le Genest, France).

For `CN(CCOc1ccc(CC2SC(=O)NC2=O)cc1)c1ccccn1` (centres unmarked) [rosiglitazone, reference compound], in the series with db/db mice (10 mg/kg/day i.p., 7 days, DMSO control 500), the “maximal glycemia in IPGTT” value is 350 mg/dL. Further, in the series with db/db mice (10 mg/kg/day, 8 days), the “body weight vs control mice” value is “tendency to increase body weight”. In addition, the “fasting serum insulin levels (mean)” value in the series on db/db mice (7 days treatment, DMSO group 180) came out at 70 μUI/mL.
Regarding `O=C(N[C@@H](Cc1ccc(O)cc1)C(=O)O)OCC1c2ccccc2-c2ccccc21` [FMOC-L-tyrosine, reference compound], the “PPARγ activation (relative luciferase activity/β-galactosidase activity)” value is “devoid of” on PPARγ2 [1] and “did not activate PPARγ” on PPARγ2 [1] (listed as FMOC substituted L-tyrosine derivative). The “modification of PPARγ activity when added to a saturating concentration of rosiglitazone” value on PPARγ2 [2] is recorded as “No significant modification”.
As to `CC(C)C[C@@H](NC(=O)OCC1c2ccccc2-c2ccccc21)C(=O)O` [FMOC-D-leucine, reference compound], the “PPARγ activation (relative luciferase activity/β-galactosidase activity)” value at PPARγ2 [1] is recorded as “no significant PPARγ activation”. Besides, the “modification of PPARγ activity when added to a saturating concentration of rosiglitazone” value on PPARγ2 [2] was “No significant modification”.

Source of the values: US20040082623A1, “Fmoc-l-leucine and derivatives thereof as ppar-gamma agonists” (priority 2003, published 2004).
